Test results published in patent publication US12691070B2, “Cationic lipids and preparation method thereof” (RiboX Therapeutics HK Limited, priority 2023, dated 2026).

What was measured:
[1] = RNA encapsulation efficacy by Quant-IT Ribogreen kit; format: physicochemical; conditions: LNP with cirRNA (SEQ ID NO: 1)
Summary of the method: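 Ribogreen read-out: encapsulation = 100% − (signal of intact RNA-LNPs / signal with Triton X-100). Particles: ionizable lipid:DSPC:Chol:DMG-PEG2000 50:10:38.5:1.5, ionizable lipid:ribonucleotide 15 or 6, final lipid 1.5–6 mM, PBS-dialyzed.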

Hep G2 cells [2] = assay: In vitro toxicity (CellTiter-Glo cell viability), Hep G2; format: cell-based; conditions: cirRNA (SEQ ID NO: 1) LNPs; Hep G2 cells;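 note: percent of untreated cells luminescence signal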
Summary of the method: (§1)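 First, cells receive RNA-LNPs at 1 μg/mL by transfection. After 72 hours, CellTiter-Glo reagent is added per kit protocol. Luminescence is then read and converted to cell viability.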

RAW 264.7 cells [3] = assay: In vitro toxicity (CellTiter-Glo cell viability), RAW 264.7; format: cell-based; conditions: cirRNA (SEQ ID NO: 1) LNPs; RAW 264.7 cells;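 note: percent of untreated cells luminescence signal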
Summary of the method: as §1

Hep G2 cells [4] = assay: In vitro expression of firefly-luciferase, Hep G2; format: cell-based; conditions: cirRNA (SEQ ID NO: 1) LNPs; firefly-luciferase luminescence; Hep G2 cells
Summary of the method: (§2)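 Both cell lines receive RNA-LNPs carrying firefly-luciferase RNA at 100 ng/mL. Lysis follows washing at 72 h post-transfection, and luciferase activity is then quantified on a luminometer using a commercial luciferase assay reagent.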

BALB/C mice = assay: In vivo expression, whole-body luminescence (IVIS); conditions: cirRNA (SEQ ID NO: 1) LNPs, BALB/C mice
Procedure: 6-8 week old, female BALB/C mice were injected with 0.05 mg*kg-1 of RNA-LNPs encoding for firefly-luciferase by intravenous injection. At 6 hours post injection, animals were intraperitoneally injected with 15 mg/ml of Luciferin substrate and whole-body luminescence was determined by a bioluminescent in vivo imaging system (IVIS).

RAW 264.7 cells [5] = assay: In vitro expression of firefly-luciferase, RAW 264.7; format: cell-based; conditions: cirRNA (SEQ ID NO: 1) LNPs; firefly-luciferase luminescence; RAW 264.7 cells
Summary of the method: as §2

[6] = LNP zeta potential (Zetasizer); format: physicochemical; conditions: LNP with cirRNA (SEQ ID NO: 1)
Summary of the method: (§3)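 LNPs of ionizable lipid/DSPC/cholesterol/DMG-PEG 2000 (50:10:38.5:1.5) made by microfluidic mixing of luciferase circRNA or mRNA in pH 4.5 acetate with lipids in ethanol (3:1, 12 ml/min), ionizable lipid:nucleotide 15 or 6, then dialyzed against PBS. Size, PDI (DLS) and zeta potential on Zetasizer; encapsulation by Ribogreen ± Triton X-100.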

[7] = LNP size and polydispersity index (PDI) by dynamic light scattering; format: physicochemical; conditions: LNP with cirRNA (SEQ ID NO: 1); for Size: in nm (unit assumed)
Summary of the method: as §3

Row | Structure (SMILES) | Encapsulation Efficiency % [1] [%] | In vitro Viability HepG2 (Hep G2 cells [2]) [%] | In vitro Viability RAW (RAW 264.7 cells [3]) [%] | In vitro Expression HepG2 (Hep G2 cells [4]) | In vivo Expression (Whole Body) (BALB/C mice) | In vitro Expression RAW (RAW 264.7 cells [5]) | Zeta (mV) [6] [mV] | PDI [7] | Size [7]
1 | CCCCCCCC/C=C\CCCCCCCCN(CCCCCCCCOC(=O)C(CCCCCC)CCCCCCCC)CCOC(=O)NCCN1CCCCC1 (stereo not drawn) [Lipid 219] | 93 | 58 | 80 | 7.09E+05 | 1.34E+08 | 3.53E+04 | 0.7668 | 0.1125 | 76.57
2 | CCCCCCCCCCCOC(=O)CCCCCN(CCCCCCCCOC(=O)C(CCCCCC)CCCCCCCC)CCOC(=O)NCCN(C)C (stereo not drawn) [Lipid 220] | 96 | 89 | 98 | 3.55E+06 | 1.45E+07 | 1.52E+04 | 10.78 | 0.304 | 112.7
3 | CCCCCCCCCCCOC(=O)CCCCCN(CCCCCCCCOC(=O)C(CCCCCC)CCCCCCCC)CCOC(=O)NCc1ncc[nH]1 (stereo not drawn) [Lipid 221] | 91 | 87 | 83 | 2.82E+05 | 1.79E+07 | 5.03E+05 | −1.368 | 0.1852 | 65.7
4 | CCCCCCCCCCCOC(=O)CCCCCN(CCCCCCCCOC(=O)C(CCCCCC)CCCCCCCC)CCOC(=O)NCCN1CCN(C)CC1 (stereo not drawn) [Lipid 222] | 97 | 42 | 87 | 1.63E+06 | 1.59E+06 | 8.85E+04 | 26.75 | 0.4109 | 98.73
5 | CCCCCCCCCCCOC(=O)CCCCCN(CCCCCCCCOC(=O)C(CCCCCC)CCCCCCCC)CCOC(=O)NCCN1CCOCC1 (stereo not drawn) [Lipid 223] | 92 | 92 | 76 | 6.42E+04 | 5.53E+06 | 4.76E+04 | −2.046 | 0.08837 | 60.01
6 | CCCCCCCCCCCOC(=O)CCCCCN(CCCCCCCCOC(=O)C(CCCCCC)CCCCCCCC)CCOC(=O)NCCCN(C)C (stereo not drawn) [Lipid 224] | 97 | 90 | 73 | 3.58E+05 | 5.05E+05 | 6.89E+03 | 27.23 | 0.4284 | 86.14
7 | CCCCCCCCCCCOC(=O)CCCCCN(CCCCCCCCOC(=O)C(CCCCCC)CCCCCCCC)CCOC(=O)NCCN1CCCC1 (stereo not drawn) [Lipid 226] | 95 | 91 | 108 | 7.79E+05 | 2.20E+07 | 9.79E+03 | 14.86 | 0.298 | 115.7
8 | CCCCCCCCCCCOC(=O)CCCCCN(CCCCCCCCOC(=O)C(CCCCCC)CCCCCCCC)CCOC(=O)NCCN1CCCCC1 (stereo not drawn) [Lipid 227] | 92 | 82 | 83 | 4.71E+05 | 9.21E+07 | 1.99E+05 | 4.217 | 0.1088 | 79.97
9 | CCCCC/C=C\CCOC(=O)CCCCCN(CCCCCC(=O)OCC(CCCCCCCC)CCCCCCCCCC)CCOC(=O)NCCN1CCCC1 (stereo not drawn) [Lipid 244] | 96 | 94 | 90 | 3.62E+06 | 3.95E+07 | 9.56E+02 | −0.164 | 0.3577 | 87.4
10 | CCCCC/C=C\C/C=C\CCCCCCCCN(CCCCCCCC(=O)OC(CCCCCCCC)CCCCCCCC)CCCOC(=O)NCCCN(CC)CC [Lipid 272] | 95 | 97 | 121 | 1.01E+07 | 6.35E+06 | 1.34E+06 | 5.434 | 0.3463 | 74.91
11 | CCCCC/C=C\C/C=C\CCCCCCCCN(CCCCCCCC(=O)OC(CCCCCCCC)CCCCCCCC)CCCOC(=O)NCCN1CCN(C)CC1 [Lipid 273] | 95 | 93 | 121 | 6.48E+06 | 5.16E+06 | 1.35E+06 | 1.543 | 0.257 | 88.34
12 | CCCCC/C=C\C/C=C\CCCCCCCCN(CCCCCCCC(=O)OC(CCCCCCCC)CCCCCCCC)CCCOC(=O)NCCN1CCOCC1 [Lipid 274] | 94 | 97 | 127 | 4.11E+06 | 2.06E+07 | 4.30E+05 | −2.714 | 0.112 | 50.6
13 | CCCCC/C=C\C/C=C\CCCCCCCCN(CCCCCCCC(=O)OC(CCCCCCCC)CCCCCCCC)CCCOC(=O)NCCCN(C)C [Lipid 275] | 95 | 102 | 129 | 7.54E+06 | 3.66E+06 | 4.30E+05 | 6.337 | 0.2727 | 60
14 | CCCCC/C=C\C/C=C\CCCCCCCCN(CCCCCCCC(=O)OC(CCCCCCCC)CCCCCCCC)CCCOC(=O)NCCN1CCCC1 [Lipid 277] | 92 | 89 | 121 | 1.17E+07 | 7.29E+07 | 8.13E+06 | −0.6853 | 0.2188 | 76.75
15 | CCCCCCCCC(CCCCCCCC)OC(=O)CCCCCCCN(CCCCCCCCOC(=O)C(CCCCCC)CCCCCCCC)CCNC(=O)OCCN(C)C (stereo not drawn) [Lipid 279] | 95 | 23 | 55 | 5.05E+06 | 3.67E+07 | 1.62E+05 | −0.06404 | 0.2722 | 87.32
16 | CCCCCCCCC(CCCCCCCC)OC(=O)CCCCCCCN(CCCCCCCCOC(=O)C(CCCCCC)CCCCCCCC)CCCOC(=O)NCc1ncc[nH]1 (stereo not drawn) [Lipid 345] | 92 | 99 | 102 | 2.57E+06 | 2.49E+06 | 2.20E+05 | −2.69 | 0.1901 | 70.01
17 | CCCCCCCCC(CCCCCCCC)OC(=O)CCCCCCCN(CCCCCCCCOC(=O)C(CCCCCC)CCCCCCCC)CCCOC(=O)NCCCN(CC)CC (stereo not drawn) [Lipid 346] | 95 | 73 | 93 | 1.02E+06 | 3.59E+06 | 1.46E+05 | −0.00452 | 0.264 | 111.1
18 | CCCCCCCCC(CCCCCCCC)OC(=O)CCCCCCCN(CCCCCCCCOC(=O)C(CCCCCC)CCCCCCCC)CCCOC(=O)NCCN1CCN(C)CC1 (stereo not drawn) [Lipid 347] | 94 | 92 | 96 | 1.04E+06 | 7.61E+06 | 4.27E+04 | −0.6677 | 0.2462 | 90.56
19 | CCCCCCCCC(CCCCCCCC)OC(=O)CCCCCCCN(CCCCCCCCOC(=O)C(CCCCCC)CCCCCCCC)CCCOC(=O)NCCc1ncc[nH]1 (stereo not drawn) [Lipid 349] | 97 | 90 | 87 | 2.42E+04 | 1.01E+07 | 7.58E+03 | 0.02482 | 0.1452 | 75.85
